Data set [1] has as its system target mRNA. The note with it: cited from earlier work.
The conditions of data set [2]: human, in vivo; cited from earlier work.
The test system of data set [3] is HBV. The note with it: compared with lamivudine; cited from earlier work.
Data set [4] concerns HBV. As to conditions: 715 treatment-naive HBeAg-positive patients, compared with lamivudine; cited from earlier work.
In data set [5] the test system is target mRNA. Put plainly: HK polymers as carriers of siRNA (transfection, reduction of target mRNA). It counts as cell-based. The note with it: highly branched polymers with eight terminal branches.
Data set [6] in a line: siRNA uptake with HK carriers. It counts as cell-based. The note with it: compared with other HK polymers or non-viral carriers tested.

This is an account of results in US20240158794A1, “NUCLEOSIDE CONTAINING siRNAS FOR TREATING VIRAL DISEASES” (priority 2020, published 2024).

Where two headings read alike, the source gives them in different places. Where no end group is shown, it is not given here.

For the molecule “H^3K4b: four-branched histidine-lysine peptide polymer, branch KHHHKHHHKHHHKHHHK- (also: one branch of four-branched polymer on lysine core)”, the “carrier of siRNA” value with target mRNA [1] was “effective carriers”.
In the case of “H^2K4b: four-branched histidine-lysine peptide polymer, branch KHKHHKHHKHHKHHKHHKHK- (also: one branch of four-branched polymer on lysine core)”, the “carrier of siRNA” value in the data set on target mRNA [1] was “poor carrier”.
On to `Cc1cn([C@H]2O[C@@H](CO)[C@H](O)[C@H]2F)c(=O)[nH]c1=O` [Clevudine, 2′-fluoro-5-methyl-b-L-arabinofuranosyl-uracil], for which, in data set [2], the “adverse events that halted development” value was “myopathy and mitochondrial toxicity”.
As for `C=C1[C@H](CO)[C@@H](O)C[C@@H]1n1cnc2c(=O)[nH]c(N)nc21` [Entecavir], in the data set on HBV [3], the “reducing viral DNA replication in vitro” value was “more effective than lamivudine”. Besides, the “rate of histological, virological and biochemical improvement” value with HBV [4] is recorded as “significantly higher rate”.

B1: H^3K8b: highly branched histidine-lysine polymer with eight terminal branches and a histidine-rich domain (peptide)
chain 1: HHHKHHHKHHHKHHH
chain 2: HHHKHHHKHHHKHHHKHHHHNHHHH
chain 3: HHHKHHHKHHHKHHHKHHHHNHHHHKKK-NH2
modifications: also: chain 2 K16 side chain amide-linked to another sequence, chain 3 K16, K26, K27, K28 side chains amide-linked to other sequences (branched core)
Regarding B1, the “carrier of siRNA” value in the data set with target mRNA [5] is recorded as “highly effective”. Further, in data set [6], the siRNA uptake entry is reported as “more effectively than other HK polymers or non-viral carriers tested”.
